Measured values published in patent publication US20170106027A1, “COMPOSITIONS AND METHODS OF IMPROVING PERFORMANCE AND INTESTINAL HEALTH OF POULTRY” (Kemin Industries, Inc., priority 2015, published 2017).
“And” between values parts separate entries of the source, which are not always exact repeats. Equal values may be shown once. Read-outs that look alike come from different tables or passages of the source.

Legend:
[1] = tested on: E. acervulina; type: in vivo, Cobb×Cobb 500 male broiler chicks; conditions: scored d35, scale 0-4
[2] = tested on: E. maxima; type: in vivo, Cobb×Cobb 500 male broiler chicks; conditions: scored d35, scale 0-4
[3] = tested on: E. tenella; type: in vivo, Cobb×Cobb 500 male broiler chicks; conditions: scored d35, scale 0-4
[4] = tested on: mixed Eimeria challenge (E. acervulina, E. maxima, E. tenella); set-up: species or system Cobb×Cobb 500 male broiler chicks; conditions: in vivo
[5] = tested on: E. acervulina; type: in vivo, Cobb×Cobb 500 male broiler chicks; conditions: feces d35
[6] = tested on: E. maxima; type: in vivo, Cobb×Cobb 500 male broiler chicks; conditions: feces d35
[7] = tested on: E. tenella; type: in vivo, Cobb×Cobb 500 male broiler chicks; conditions: feces d35
[8] = tested on: Eimeria tenella sporozoites; experiment: In vitro MTT assay of Eimeria tenella sporozoite viability
[9] = tested on: C. perfringens; type: in vivo, Cobb×Cobb 500 male broiler chicks
[10] = Treatments In (kept in basal diet d28-35)
[11] = Treatments Out (removed from basal diet d28-35)

Compound | Average lesion score E. acervulina [1, 10] | Average lesion score E. acervulina [1, 11] | Average lesion score E. maxima [2, 10] | Average lesion score E. maxima [2, 11] | Average lesion score E. tenella [3, 10] | Average lesion score E. tenella [3, 11] | Average lesion score Overall [4] | Average oocysts per gram (OPG) in feces E. acervulina ([5]; Treatments In) [oocysts per gram] | Average oocysts per gram (OPG) in feces E. acervulina ([5]; Treatments Out) [oocysts per gram] | Average oocysts per gram (OPG) in feces E. maxima ([6]; Treatments In) [oocysts per gram] | Average oocysts per gram (OPG) in feces E. maxima ([6]; Treatments Out) [oocysts per gram] | Average oocysts per gram (OPG) in feces E. tenella ([7]; Treatments In) [oocysts per gram] | Average oocysts per gram (OPG) in feces E. tenella ([7]; Treatments Out) [oocysts per gram] | additional decrease of sporozoite viability ([8]; 100 ppm compared to 50 ppm) [%] | sporozoite viability (in words) ([8]; MTT assay, 50 and 100 ppm, salinomycin 60 ppm positive control) | mortality due to necrotic enteritis (in words) ([9]; C. perfringens challenged birds) | FCR (in words) ([9]; C. perfringens challenged broilers) | FCR (0-21 days) ([9]; challenged with C. perfringens d19, 20, 21, FCR adjusted for mortality)
CC[C@@H](C(=O)[C@@H](C)[C@@H](O)[C@H](C)[C@@H]1O[C@@H]([C@@H](CC)C(=O)O)CC[C@@H]1C)[C@H]1O[C@]2(C=C[C@@H](O)[C@]3(CC[C@@](C)([C@H]4CC[C@](O)(CC)[C@H](C)O4)O3)O2)[C@H](C)C[C@@H]1C [BioCox ®, salinomycin] | 0.95 | 1.50 | 0.60 | 0.78 | 1.05 | 1.00 | 0.87 and 1.09 | 734 | 19510 | 67 | 0 | 1167 | 1668 | – | – | – | – | –
O=C(OC[C@H]1O[C@@H](OC(=O)c2cc(O)c(O)c(OC(=O)c3cc(O)c(O)c(O)c3)c2)[C@H](OC(=O)c2cc(O)c(O)c(OC(=O)c3cc(O)c(O)c(O)c3)c2)[C@@H](OC(=O)c2cc(O)c(O)c(OC(=O)c3cc(O)c(O)c(O)c3)c2)[C@@H]1OC(=O)c1cc(O)c(O)c(OC(=O)c2cc(O)c(O)c(O)c2)c1)c1cc(O)c(O)c(OC(=O)c2cc(O)c(O)c(O)c2)c1 [tannic acid] | – | – | – | – | – | – | – | – | – | – | – | – | – | 5 | reductions were greater | – | – | –
bacitracin methylene disalicylate [BMD] | – | – | – | – | – | – | – | – | – | – | – | – | – | – | – | reduced | improved FCR | 1.904
N=C(N/N=C/c1ccc(Cl)cc1)N/N=C/c1ccc(Cl)cc1 [Robenz ®, Robenidine] | 0.45 | 1.38 | 0.30 | 0.68 | 2.30 | 1.00 | 1.02 | 1301 | 4869 | 0 | 600 | 1034 | 3468 | – | – | – | – | –
